The text below walks through data of PubChem BioAssay (NCI).

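Results reflect a 48-hour exposure of cells in 96-well plates to compound at five concentrations. TGI: concentration producing complete growth inhibition.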

Some test systems named below: SNB-78 CNS; M19-MEL melanoma; DMS 114 small cell lung; KM20L2 colon; DMS 273 small cell lung; HOP-18 NSCLC; DLD-1 colon; XF 498 CNS; RXF-631 renal.
Assay in all cases: NCI tumour cell line growth inhibition, 48 h

Regarding `CC(=O)OC1CC2C(C)(C)C(=O)C=C[C@]2(C)C2CCC3(C)C(c4ccoc4)[C@@H](O)[C@H]4O[C@]43[C@]12C` (some centres undefined), the TGI turned out to be 67.8 µM with SNB-78 CNS; 36.5 µM in the test on M19-MEL melanoma; 41.9 µM with DMS 114 small cell lung; 33.4 µM in the test with KM20L2 colon; 89.1 µM in the test with DMS 273 small cell lung; 45.5 µM in the test with HOP-18 NSCLC. The TGI with DLD-1 colon was 41 µM.
As for `C=C(Br)C(C)(Br)CCC(Br)C(C)(C)Br` (centres undefined), the TGI in the test with SNB-78 CNS is 70.4 µM; with M19-MEL melanoma, 35.8 µM; in the test with DMS 114 small cell lung it was 31.6 µM; in the test on DMS 273 small cell lung, 42.9 µM; with HOP-18 NSCLC it was greater than 100 µM; with DLD-1 colon, greater than 100 µM.
With `CC1=CC(=O)c2c(C=O)c(O)c(O)c(C(C)C)c2C1=O`, the TGI in the test with SNB-78 CNS is greater than 100 µM; in the test on M19-MEL melanoma it was greater than 100 µM; in the test with DMS 114 small cell lung, 51.5 µM; in the test on KM20L2 colon, greater than 100 µM; in the test on XF 498 CNS, 43.9 µM; in the test on DMS 273 small cell lung, greater than 88.5 µM. The TGI with HOP-18 NSCLC is 58 µM; in the test on DLD-1 colon it was greater than 68.4 µM.
Regarding `Cc1c(C(=O)/C=C/c2c(Cl)cccc2Cl)c(=O)n(-c2ccccc2)n1C`, the TGI in the test with SNB-78 CNS was greater than 100 µM; with M19-MEL melanoma, greater than 100 µM; in the test on DMS 114 small cell lung, greater than 100 µM; with KM20L2 colon, greater than 100 µM; in the test with XF 498 CNS it was 71 µM; in the test on DMS 273 small cell lung, 33.7 µM.
For the compound `CCOC(=O)C(C(=O)OCC)=C1N[C@H](C(=O)OCC)CS1`, the TGI in the test on SNB-78 CNS, in the test with M19-MEL melanoma, in the test on KM20L2 colon, in the test on XF 498 CNS, in the test on HOP-18 NSCLC and in the test on DLD-1 colon was greater than 100 µM throughout. Further, the TGI in the test on RXF-631 renal is greater than 100 µM.
On to `CCCCCNC(=O)c1c(O)[nH]c(=S)[nH]c1=O`, for which the TGI in the test with SNB-78 CNS, with M19-MEL melanoma, in the test on DMS 114 small cell lung, in the test with KM20L2 colon and in the test on RXF-631 renal was greater than 100 µM in each case.
